Experiments:
[1] = Kinetic profile of mineral formation; details: fast = immediate mineral formation; slow = about 5 minutes to about 1 hour
Procedure: Fast kinetics refers to fast mineral formation, such as immediate mineral formation, while slow mineral formation refers to mineral formation over a period of time, such as about 5 minutes to about 1 hour. In some embodiments, a first biomineralizing peptide having faster kinetics can be used in combination with a second biomineralizing peptide having slower kinetics.

[2] = Solution mineralization approach on tetracycline-stained human teeth; line profile analysis (Mean Pixel Intensity); details: for Mean Pixel Intensity: shADP5 0.8 mM, tetracycline-stained
Excerpt: Human teeth, donated by the University of Washington School of Dentistry (Seattle, Wash., USA), were selected for their clean, smooth surfaces. The teeth were sterilized in bleach, cut on a diamond blade to remove the root, and halved. A thin layer of the enamel surface was then cut on one of the halves parallel to the previous cut, such that the dentin layer could be seen without completely removing the enamel on the tooth. This allowed imaging of the enamel surfaces after the mineralization experiment without the problem of surface reflection encountered in previous experiments, in addition to a more parallel surface from which to compare the brightness or whiteness results. The cut enamel side of the tooth sample was then sonicated in DI water and polished on diamond slurry smooth out the surface for imaging. The sample was then cut into quarters, with the lower half selected for a tetracycline experiment because of the even distribution of dentin coloring in the lower quarters of the tooth sample. The samples were then stained in 10 mg/mL tetracycline solution for five days.
During mineralization, using a 96-well plate, one of the stained halves was stored in 1200 μL Tris (24 mM) as a negative control, and the experimental sample was incubated in 150 μL shADP5 (0.8 mM) at 37° C. for 10 minutes. The experimental sample was then rinsed of excess peptide with deionized water and then stored in 600 μL CaCl2 (9.6 mM), to which 600 μL monobasic KH2PO4 (5.76 mM) was added. The well plate containing both the control and experimental samples was then stored at 37° C. for about 24 hours for mineralization to occur on the treated stained tooth sample.
[…] After 27 rounds of mineralization on the experimental sample, the tooth was inspected for changes in brightness qualitatively. The stained negative control was polished to expose the original enamel stain in order to compare the whitening effect of the peptide mineralization.

[3] = In vitro re-mineralization of tea-stained rat tooth with peptide solution; details: peptide 10 min 37° C., then CaCl2/KH2PO4 16 hours 37° C., control in Tris buffer
Procedure: Rat teeth (molars) were obtained from sacrificed rats (for example, Sprague Dawley rats, age 3 weeks or older) from animal facility, collected, and stored in 100% alcohol. Prior to the re-mineralization experiments the teeth were stored in 1% bleach for 24 hours. […] The teeth were then dried in an incubator in air at 37° C. for 3-6 hours to produce dry surface. The root site and section the crown were removed vertically using a diamond blade. Pictures were taken with camera attached to optical microscope. Exposed dentine sites in the one half of the sectioned tooth were etched with 35% phosphoric acid (Ultraetch™) for 60 seconds (to facilitate the stain intake). The etching gel was removed by rinsing the sample with distilled water for 3 minutes. The staining solution was prepared by boiling 2 g of tea in 100 ml of deionized water for 5 minutes, and then cooled down to room temperature and filtered. The tooth sample was soaked in the staining solution and incubated at 37° C. at 150 rpm for 24 hours. The tooth was removed from the staining solution and sonicated for 30 seconds in deionized water (sonic bath) to remove the excess amount of tea particles attached to tooth extrinsically. The one half of the sectioned tooth was cut vertically into half again to form two quarter sections of the tooth. A second set of pictures were taken with camera attached to optical microscope. […]

[4] = Solution mineralization approach, 25 rounds, colour measured with Minolta Chroma Meter CR-200; details: unstained sectioned human tooth, peptide 10 minutes, calcium/phosphate ions 2 hours 37° C.
Excerpt: The root site of an extracted human tooth was removed and the crown portion of the tooth was sectioned vertically into half. A thin layer of enamel was removed from one half of the sectioned tooth such that the dentin layer is exposed without completely removing the enamel on the tooth. This allowed imaging of the enamel surfaces after the mineralization experiment without the problem of surface reflection, and provides a more parallel surface from which to compare the whiteness results. The sectioned tooth was fixed onto a glass slide with epoxy. Initial color measurements of each of the four sides of the sectioned tooth was obtained using a Minolta Chroma Meter CR-200 (Konica Minolta, Tokyo, Japan), according to manufacturer instructions, using a white background and a black background. The sectioned tooth was incubated in a mineralization polypeptide solution for 10 minutes at 37° C. and then in a solution with calcium ions and phosphate ions for 2 hours at 37° C. Color measurements of each of the four sides of the sample were taken as described initially. The sectioned was rinsed with deionized water and the remineralization process (incubation in polypeptide solution, incubation in solution of ion sources, and rinsing with deionized water) was repeated for a total of 25 rounds. The mineralization polypeptide was SYENSHSQAINVDRT (shADP5; SEQ ID NO:16).

[5] = In vitro re-mineralization of tea-stained human tooth with peptide solution; line profile analysis (Mean Pixel Intensity, ImageJ)
Procedure: A caries-free human tooth was sterilized in 1% bleach solution for 24 hours then removed and vigorously rinsed with deionized water. The root site was removed and the crown sectioned vertically using a diamond blade. Pictures were taken with a camera attached to an optical microscope.
The exposed dentine sites were etched with 35% phosphoric acid (Ultraetch™) for 60 seconds (to facilitate the stain intake). The etching gel was removed by rinsing the sample with distilled water for 3 minutes. The staining solution was prepared by boiling 2 g of tea in 100 ml of deionized water for 5 minutes, which was then cooled down to room temperature and filtered. The tooth was soaked in the staining solution and incubated at 37° C. at 150 rpm for 24 hours. The tooth was then removed from the staining solution and sonicated for 30 seconds in deionized water (sonic bath) to remove the excess amount of tea particles attached to tooth extrinsically. The sectioned tooth was cut vertically in half again to form two quarter sections of the tooth. FIGS. 2(a) to 2(g) show various sections of the tooth after the staining. […] Figures (b), (c) and (d) show different views of the left quarter of the tooth that was sectioned from the tooth. Figures (e), (f) and (g) show different views of the right quarter of the tooth that was sectioned from the tooth. As can be observed from FIGS. 2(a) to 2(g), brown stains from the staining solution were formed on the surface and below the surface of the tooth. The left quarter of the tooth was stored in 24 mM Tris Buffer (pH: 7.4) for control and the right quarter of the tooth (test tooth) was used for in vitro re-mineralization. The test tooth was submerged into peptide solution (600 μl) containing a mineralization polypeptide in a 48 well plate and incubated for 10 minutes at 37° C. After incubation, the tooth was removed and placed into to a new well. A mineralization solution of 400 μl of 9.6 mM CaCl2 and 400 μl of 5.6 mM KH2PO4 was added and quickly mixed by pipetting the solution up and down. […]

Row | Substance | kinetic profile (mineral formation) [1] | Mean Pixel Intensity ([2]; After 3 rounds of remineralization, Bar B in FIG. 6) | Mean Pixel Intensity ([2]; After 4 rounds of remineralization, Bar C in FIG. 6) | Mean Pixel Intensity ([2]; After 5 rounds of remineralization, Bar D in FIG. 6) | Mean Pixel Intensity ([2]; After 7 rounds of remineralization, Bar E in FIG. 6) | whiteness of the stained tooth ([2]; repeated rounds of remineralization (3 to 7 rounds)) | colour of treated tooth quarter versus control [3] | whiteness of the tooth enamel [4] | Mean Pixel Intensity ([5]; Whitened (stained and remineralized), 0 = completely black, 100 = completely white, Bar C in FIG. 4) | whiteness versus original tooth and stained tooth ([5]; after staining and remineralization, from MPI in FIG. 4) | colour of treated tooth quarter versus control ([5]; tea-stained human tooth, peptide 10 minutes 37° C., then CaCl2/KH2PO4 16 hours 37° C., control in Tris buffer)
1 | (HPP(S/T)HTLQPHHH(L/I)PVVPAQQPV (A/I)PQQPMMPVPG(H/Q)HSMTP(T/I)QH)1-10 [ADP7] | slow kinetic profile |  |  |  |  |  |  |  |  |  | 
2 | SYENSHSQAINVDRT [shADP5, shortened amelogenin derived polypeptide ADP5] |  | 69.47 ± 2.96 | 70.11 ± 2.92 | 70.79 ± 1.96 | 74.47 ± 2.13 | whiteness of the stained tooth improves with repeated rounds of remineralization | lighter in color than the control | whiteness of the tooth enamel improved with each round of remineralization | 96.21 ± 2.39 | improved whiteness over the original tooth and the stained tooth | lighter in color than the left quarter (control)
3 | (PGYIN(L/F)SYE(K/N)SHSQAIN(T/V)DRTA)1-10 [ADP5] | fast kinetic profile |  |  |  |  |  |  |  |  |  | 
